Laboratory results reported in the supplement of paper PMC4862054.

Assays:
Conditions in all cases: incubation time: 72 h
MDA-MB-231 [1] = test: normalised response (% of control), CellTiter-Glo; higher = more viable cells (100 = DMSO, 0 = benzethonium chloride kill control)
Method in brief: (§1)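 Each value is the plate-normalised signal at one concentration of the series. Breast cancer cell lines (20 µl suspension) were incubated 72 h in 384-well plates with compound at 5 concentrations in 10-fold steps over a compound-specific 10,000-fold range. CellTox Green and then CellTiter-Glo were read, and each plate was scaled to 0.1 % DMSO (100) and a positive kill control (0).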

CAL-120 [2] = test: as above
Method in brief: as §1

MFM-223 [3] = test: as above
Method in brief: as §1

CAL-148 [4] = test: as above
Method in brief: as §1

MCF-10A [5] = test: as above
Method in brief: as §1

MDA-MB-468 [6] = test: as above
Method in brief: as §1

HCC1937 [7] = test: as above
Method in brief: as §1

HCC1599 [8] = test: as above
Method in brief: as §1

MDA-MB-453 [9] = test: as above
Method in brief: as §1

BT-474 [10] = test: as above
Method in brief: as §1

HDQ-P1 [11] = test: as above
Method in brief: as §1

CAL-51 [12] = test: as above
Method in brief: as §1

Hs578T [13] = test: as above
Method in brief: as §1

MDA-MB-436 [14] = test: as above
Method in brief: as §1

BT-549 [15] = test: as above
Method in brief: as §1

DU-4475 [16] = test: as above
Method in brief: as §1

CAL-85-1 [17] = test: as above
Method in brief: as §1

SK-BR-3 = test: as above
Method in brief: as §1

HCC1143 [18] = test: as above
Method in brief: as §1

MDA-MB-231 [19] = test: normalised response (% of control), CellTox Green; higher = less cell death (100 = DMSO, 0 = benzethonium chloride kill control)
Method in brief: as §1

CAL-120 [20] = test: as above
Method in brief: as §1

MFM-223 [21] = test: as above
Method in brief: as §1

CAL-148 [22] = test: as above
Method in brief: as §1

MCF-10A [23] = test: as above
Method in brief: as §1

MDA-MB-468 [24] = test: as above
Method in brief: as §1

HCC1937 [25] = test: as above
Method in brief: as §1

HCC1599 [26] = test: as above
Method in brief: as §1

MDA-MB-453 [27] = test: as above
Method in brief: as §1

BT-474 [28] = test: as above
Method in brief: as §1

HDQ-P1 [29] = test: as above
Method in brief: as §1

CAL-51 [30] = test: as above
Method in brief: as §1

Hs578T [31] = test: as above
Method in brief: as §1

MDA-MB-436 [32] = test: as above
Method in brief: as §1

BT-549 [33] = test: as above
Method in brief: as §1

DU-4475 [34] = test: as above
Method in brief: as §1

CAL-85-1 [35] = test: as above
Method in brief: as §1

HCC1143 [36] = test: as above
Method in brief: as §1

Row | SMILES | normalised response (MDA-MB-231 [1]) [%] | normalised response (CAL-120 [2]) [%] | normalised response (MFM-223 [3]) [%] | normalised response (CAL-148 [4]) [%] | normalised response (MCF-10A [5]) [%] | normalised response (MDA-MB-468 [6]) [%] | normalised response (HCC1937 [7]) [%] | normalised response (HCC1599 [8]) [%] | normalised response (MDA-MB-453 [9]) [%] | normalised response (BT-474 [10]) [%] | normalised response (HDQ-P1 [11]) [%] | normalised response (CAL-51 [12]) [%] | normalised response (Hs578T [13]) [%] | normalised response (MDA-MB-436 [14]) [%] | normalised response (BT-549 [15]) [%] | normalised response (DU-4475 [16]) [%] | normalised response (CAL-85-1 [17]) [%] | normalised response (SK-BR-3) [%] | normalised response (HCC1143 [18]) [%] | normalised response (MDA-MB-231 [19]) [%] | normalised response (CAL-120 [20]) [%] | normalised response (MFM-223 [21]) [%] | normalised response (CAL-148 [22]) [%] | normalised response (MCF-10A [23]) [%] | normalised response (MDA-MB-468 [24]) [%] | normalised response (HCC1937 [25]) [%] | normalised response (HCC1599 [26]) [%] | normalised response (MDA-MB-453 [27]) [%] | normalised response (BT-474 [28]) [%] | normalised response (HDQ-P1 [29]) [%] | normalised response (CAL-51 [30]) [%] | normalised response (Hs578T [31]) [%] | normalised response (MDA-MB-436 [32]) [%] | normalised response (BT-549 [33]) [%] | normalised response (DU-4475 [34]) [%] | normalised response (CAL-85-1 [35]) [%] | normalised response (HCC1143 [36]) [%]
1 | Cc1c2oc3c(C)ccc(C(=O)N[C@@H]4C(=O)N[C@H](C(C)C)C(=O)N5CCC[C@H]5C(=O)N(C)CC(=O)N(C)[C@@H](C(C)C)C(=O)O[C@@H]4C)c3nc-2c(C(=O)N[C@@H]2C(=O)N[C@H](C(C)C)C(=O)N3CCC[C@H]3C(=O)N(C)CC(=O)N(C)[C@@H](C(C)C)C(=O)O[C@@H]2C)c(N)c1=O [Dactinomycin] (10 nM) | 62.1 | 65 | 88.9 | 27.2 | 52.2 | 18.7 | 51 | 102 | 84.7 | 64.6 | 41.5 | 20.4 | 58.7 | 53.4 | 13.3 | 3.42 | 51.7 | 59.2 | 54.7 | 43.8 | 102 | 104 | 17.1 | 109 | 84 | 107 | 99.3 | 91.5 | 102 | 82.8 | -32.3 | 104 | 90.8 | 80.4 | 74.7 | 69.3 | 117
2 | S=c1[nH]cnc2nc[nH]c12 [Mercaptopurine] (100 nM) | 101 | 92.5 | 98.5 | 81.7 | 94.6 | 88.4 | 94 | 91.3 | 95.5 | 95.1 | 105 | 96.9 | 96.6 | 96.1 | 104 | 96.8 | 90.8 | 98.3 | 104 | 80.6 | 98.4 | 82.7 | 95.9 | 99.5 | 134 | 101 | 98 | 103 | 91.2 | 66.2 | 94.5 | 92.4 | 102 | 94.6 | 98.8 | 108 | 91.9
3 | C=CC[C@@H]1/C=C(\C)C[C@H](C)C[C@H](OC)[C@H]2O[C@@](O)(C(=O)C(=O)N3CCCC[C@H]3C(=O)O[C@H](/C(C)=C/[C@@H]3CC[C@@H](O)[C@H](OC)C3)[C@H](C)[C@@H](O)CC1=O)[C@H](C)C[C@@H]2OC [Tacrolimus] (100 nM) | 110 | 98.8 | 106 | 111 | 102 | 93 | 98 | 95.9 | 103 | 100 | 97.7 | 77.2 | 96.5 | 96.4 | 98.2 | 101 | 94.6 | 89.7 | 101 | 104 | 100 | 101 | 82 | 57.2 | 186 | 107 | 95.4 | 97.8 | 100 | 69.4 | 91 | 95.7 | 103 | 104 | 100 | 93.4 | 99.5
4 | CC[C@]1(O)C[C@@H]2CN(CCc3c([nH]c4ccccc34)[C@@](C(=O)OC)(c3cc4c(cc3OC)N(C)[C@H]3[C@@](O)(C(=O)OC)[C@H](OC(C)=O)[C@]5(CC)C=CCN6CC[C@]43[C@@H]65)C2)C1 [Vinblastine] (10 nM) | 57.8 | 51.5 | 77.1 | 70.8 | 51.6 | 33.9 | 71 | 70.4 | 57.4 | 58.2 | 76.1 | 58.1 | 55.4 | 36 | 39.1 | 96.1 | 29.4 | 12.3 | 48.6 | -19.5 | 73.6 | 69.6 | 82.7 | 16.4 | 110 | 92.3 | 84.7 | 98 | 72.6 | 40.4 | 30.4 | 71.2 | 44.7 | 65.2 | 102 | 31.4 | 92
5 | CO[C@H]1C[C@@H]2CC[C@@H](C)[C@@](O)(O2)C(=O)C(=O)N2CCCC[C@H]2C(=O)O[C@H]([C@H](C)C[C@@H]2CC[C@@H](OC(=O)C(C)(CO)CO)[C@H](OC)C2)CC(=O)[C@H](C)/C=C(\C)[C@@H](O)[C@@H](OC)C(=O)[C@H](C)C[C@H](C)/C=C/C=C/C=C/1C [Temsirolimus] (1 nM) | 98.8 | 83.4 | 79.6 | 82.5 | 102 | 56.3 | 77.8 | 111 | 88.4 | 90.8 | 94.4 | 68.3 | 69.9 | 87.2 | 68.4 | 92.3 | 74.8 | 68.7 | 77.4 | 94.2 | 102 | 90.2 | 96.7 | 99.6 | 135 | 118 | 109 | 100 | 89.6 | 113 | 94.9 | 66.9 | 99.8 | 109 | 97.5 | 97.9 | 117
